Reference: article PMC9186412, “Rational Framework for the Design of Trp- and Arg-Rich Peptide Antibiotics Against Multidrug-Resistant Bacteria” (Frontiers in Microbiology, 2022)
≈ marks a conversion by molar mass, not a printed value. Like-named read-outs stand apart in the source and are kept apart here.

Assays:
Enterobacter spp = assay: microbe, parasite or virus in culture; format: cell-based, Enterobacter spp (aerogenes, cloacae); settings: Enterobacter, 18 h, UPMC, MHB2, 18 h, 37°C
Procedure, shortened: (§1)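 Clinical isolates in log phase were exposed to peptides in cation-adjusted MHB for 18 h at 37 °C, with growth followed hourly at A570 to give the MIC by a modified CLSI method. For MBC, bacteria were treated 3 h in 15% FBS/25% MHB/60% PBS and then plated; MBC was the concentration giving complete killing.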

E. coli = assay: microbe, parasite or virus in culture; format: cell-based, Escherichia coli; settings: Escherichia coli, 18 h, MHB2, 18 h, 37°C
Procedure, shortened: as §1

MDR strain PA239 = assay: Propidium iodide incorporation by flow cytometry; format: cell-based, Pseudomonas aeruginosa; settings: 2 μM, treated for 3 h
Source text: To examine whether the selected peptides kill their bacterial target mainly by membrane permeabilization, we used PI incorporation by the MDR strain PA239 (5 × 10^8 CFU/mL) quantitated by flow cytometry (Novocyte, United States) or visualized by video imaging using the digital microscope EVOS M7000 (Thermo Fisher Scientific, United States) in bright field or red fluorescence channel. In the flow cytometry experiments ([Di et al., 2020]), bacterial cells were either untreated or treated with different peptide E35 concentrations in MHB2 for 1 h at 37°C. We washed the bacteria-peptide mixture with PBS using an Eppendorf centrifuge at top speed for 7 min and incubated with PI in the dark for 15 min at room temperature. Tobramycin was used as a negative control with a 3-h long incubation. For video imaging, the broth medium was reduced to 20% in PBS (treated or untreated) to decrease the rate of cell division and PI incorporation assessed over time. Video images were recorded in real time using the 40× objective either in bright field or red fluorescence channel.

P. aeruginosa = assay: microbe, parasite or virus in culture; format: cell-based, Pseudomonas aeruginosa; settings: Pseudomonas aeruginosa, MHB2, 18 h, 37°C
Protocol: Bacterial clinical isolates, used for initial screening and in previous studies ([Deslouches et al., 2013]; [Lin et al., 2018]), were anonymously provided by the clinical microbiology laboratory of the University of Pittsburgh medical Center. The panel used for secondary screening was from [CDC (2013)] (Supplementary Table 3), with resistance profiles data. Bacteria are stored in lock-secured –80°C freezer and typically retrieved by obtaining single colonies on agar plates prior for subsequent liquid broth cultures. Suspensions of test bacteria were prepared from log phase of growth by diluting overnight cultures at 1:100 with fresh cation-adjusted MHB (MHB2, Millipore Sigma, United States) and incubating for additional 3–4 h. Bacteria were spun at 3,000 × g for 10 min and the pellet resuspended in test condition media (Millipore Sigma, United States) to determine bacterial turbidity using a Den-1B densitometer (Grant Instruments, United States) at 0.5 McFarland (unit of bacterial density) corresponding to […].
To examine antibacterial activity, we used minor modifications of a standard growth inhibition assay endorsed by the Clinical and Laboratory Standards Institute (CLSI), as previously described ([Deslouches et al., 2013]). Bacteria were incubated with each of the indicated peptides in MHB2. The bacterial cells were kept in an incubator for 18 h at 37°C, which is linked to a robotic system that feeds a plate reader every hour with one of 8 × 96-well plates. This set-up allows the collection of growth kinetic data at A 570 (absorbance at 570 nm) to examine growth inhibition in real time (BioTek Instruments, United States). […] The assays are typically repeated a second time. If the MIC is different, a third experimental trial is performed to confirm the MIC. To assess bactericidal properties of the peptide, the assay was modified by using 15% fetal bovine serum (FBS, for a more physiologically relevant test condition) mixed with 25% MHB2 and 60% PBS. Bacterial cells (colony forming unit/mL or CFU/mL) were enumerated after incubating treated bacteria for 3 h and plating serially diluted samples on broth agar medium at 37°C overnight. Minimum bactericidal concentration (MBC) was determined as the peptide concentration at which complete bacterial killing was observed. […] Data were analyzed using GraphPad Prism software.

K. pneumoniae = assay: microbe, parasite or virus in culture; format: cell-based, Klebsiella pneumoniae; settings: Klebsiella pneumoniae, 18 h, MHB2, 18 h, 37°C
Procedure, shortened: as §1

A. baumannii = assay: microbe, parasite or virus in culture; format: cell-based, Acinetobacter baumannii; settings: Acinetobacter baumannii, 18 h, MHB2, 18 h, 37°C
Procedure, shortened: as §1

CDC AR isolates = test system: CDC AR isolates; design: key: S (green), susceptible; I (blue), intermediate; R (red), resistant; settings: data provided by the CDC, ref CDC, cited from earlier work
Source text: Supplement Table_3.XLSX, sheet "CDC AR isolates profiles" | column: G(-) strains

NC[C@H]1O[C@H](O[C@H]2[C@H](O)[C@@H](O[C@H]3O[C@H](CO)[C@@H](O)[C@H](N)[C@H]3O)[C@H](N)C[C@@H]2N)[C@H](N)C[C@@H]1O [Tobramycin, reference compound]
MIC (Enterobacter spp; strain EA518 (aerogenes)): > 16 µM
MIC (Enterobacter spp; strain EA596 (aerogenes)): > 16 µM
MIC (Enterobacter spp; strain EC470 (cloacae)): 4 µM (≈ 1.87 µg/mL)
MIC (Enterobacter spp; strain EC560 (cloacae)): > 16 µM
MIC (E. coli; strain YDC337, UPMC): > 16 µM
MIC (E. coli; strain YDC748, UPMC): 16 µM (≈ 7.48 µg/mL)
PI incorporation (MDR strain PA239): 29%
MIC (P. aeruginosa; 18 h, strain PA01): 1 µM (≈ 0.468 µg/mL)
MIC (P. aeruginosa; 18 h, strain PA97-5, UPMC): > 16 µM
MIC (P. aeruginosa; 18 h, strain PA129-5, UPMC): 16 µM (≈ 7.48 µg/mL)
MIC (P. aeruginosa; PA14, 18 h, strain PA14): 0.5 µM (≈ 0.234 µg/mL)
MIC (K. pneumoniae; strain KPA5 (colistin-resistant), UPMC): > 16 µM
MIC (K. pneumoniae; strain KPB3, UPMC): > 16 µM
MIC (A. baumannii; strain AB-A2, UPMC clinical strain, A570, confirmed by 2nd or 3rd trial): 0.5 µM (≈ 0.234 µg/mL)
MIC (A. baumannii; strain AB-A3, UPMC): 16 µM (≈ 7.48 µg/mL)
MIC (A. baumannii; strain AB-F8, UPMC): > 16 µM
MIC (A. baumannii; strain AB-F9, UPMC): 2 µM (≈ 0.935 µg/mL)
Antibiotic susceptibility profile (CDC AR isolates; Acinetobacter baumannii AB273, CDC AR isolate): R
Antibiotic susceptibility profile (CDC AR isolates; Acinetobacter baumannii AB274, CDC AR isolate): S
Antibiotic susceptibility profile (CDC AR isolates; Acinetobacter baumannii AB275, CDC AR isolate): R
Antibiotic susceptibility profile (CDC AR isolates; Acinetobacter baumannii AB276, CDC AR isolate): R
Antibiotic susceptibility profile (CDC AR isolates; Enterobacter cloacae E62, CDC AR isolate): R
Antibiotic susceptibility profile (CDC AR isolates; Escherichia coli EC541, CDC AR isolate): R
Antibiotic susceptibility profile (CDC AR isolates; Escherichia coli EC543, CDC AR isolate): R
Antibiotic susceptibility profile (CDC AR isolates; Escherichia coli EC544, CDC AR isolate): R
Antibiotic susceptibility profile (CDC AR isolates; Escherichia coli EC549, CDC AR isolate): R
Antibiotic susceptibility profile (CDC AR isolates; Klebsiella pneumoniae KP542, CDC AR isolate): R
Antibiotic susceptibility profile (CDC AR isolates; Klebsiella pneumoniae KP548, CDC AR isolate): S
Antibiotic susceptibility profile (CDC AR isolates; Klebsiella pneumoniae KP550, CDC AR isolate): R
Antibiotic susceptibility profile (CDC AR isolates; Klebsiella pneumoniae KP552, CDC AR isolate): R
Antibiotic susceptibility profile (CDC AR isolates; Pseudomonas aeruginosa PA229, CDC AR isolate): S
Antibiotic susceptibility profile (CDC AR isolates; Pseudomonas aeruginosa PA230, CDC AR isolate): R
Antibiotic susceptibility profile (CDC AR isolates; Pseudomonas aeruginosa PA231, CDC AR isolate): R
Antibiotic susceptibility profile (CDC AR isolates; Pseudomonas aeruginosa PA232, CDC AR isolate): R
Antibiotic susceptibility profile (CDC AR isolates; Pseudomonas aeruginosa PA239, CDC AR isolate): R
